The values that follow come from article PMC5790279, “Identification of novel leishmanicidal molecules by virtual and biochemical screenings targeting Leishmania eukaryotic translation initiation factor 4A” (PLoS Neglected Tropical Diseases, 2018).

Where two headings read alike, the source gives them in different places.

The test system of series [1] is intracellular L. donovani amastigotes. Details: method as in PMID 16949702. The following applies: at 1.94 μM; cited from earlier work.
Series [2] deals with T1, LieIF (Leishmania infantum, UniProt A4HRK0).
T1 construct: His tag; made in house; host or cells: Escherichia coli Rosetta (Novagen)
T1 sequence (A4HRK0 1-403): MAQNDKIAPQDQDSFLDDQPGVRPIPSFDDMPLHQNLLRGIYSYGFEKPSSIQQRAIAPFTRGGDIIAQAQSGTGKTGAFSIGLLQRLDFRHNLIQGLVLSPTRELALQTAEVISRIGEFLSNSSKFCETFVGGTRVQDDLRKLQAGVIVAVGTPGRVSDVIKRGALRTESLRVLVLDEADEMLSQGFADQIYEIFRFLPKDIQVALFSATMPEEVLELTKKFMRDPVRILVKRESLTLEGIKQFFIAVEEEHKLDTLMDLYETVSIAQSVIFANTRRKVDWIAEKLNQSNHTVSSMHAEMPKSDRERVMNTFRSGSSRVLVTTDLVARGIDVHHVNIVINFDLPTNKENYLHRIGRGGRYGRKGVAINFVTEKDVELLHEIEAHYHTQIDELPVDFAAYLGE
Nature of the series: Malachite green RNA-dependent ATPase assay of LieIF. In kind it is biochemical. The conditions noted are these: for effect on the ATPase activity of LieIF in screen: screened at 500 μM. As for the experimental part:
(§1) The Rosetta Escherichia coli strain (Novagen) was used for the expression of His-tagged recombinant LieIF and mouse eIF4AI (eIF4AIMus) proteins using already described constructs. Protein expression was performed as previously described, except that cultures were induced with 0.5 mM IPTG. Cells were collected by centrifugation and stored at -20°C until needed. Pellets were resuspended in 10 ml of buffer A (Tris-HCl, pH 7.5, 300 mM NaCl) supplemented with 10 mM imidazole and 0.02% NP40 (lysis buffer). Lysozyme (10 μg/ml, Sigma-Aldrich, St. Louis, MO, USA) and 1x of complete protease inhibitor EDTA-free cocktail (Roche, Indianapolis, USA) were added. The mixtures were kept on ice for 30 min. Then, cells were ruptured by sonication four times for 20 seconds with a Cell Disruptor W375 (Heat System-Ultrasonic, Plainview, N.Y., USA) using a microprobe at a setting of 5 and a duty cycle of 60%. The material was centrifuged for 30 min at 15,000 rpm in a JA-20 rotor (Beckman Coulter, Villepinte, France) at 4°C, and the supernatant was loaded onto a 1 ml nickel-nitrilotriacetic acid (Ni-NTA) agarose column (Ni-NTA, Qiagen, Hilden, Germany) equilibrated with the lysis buffer. The column was washed with 20 ml buffer A supplemented with 25 mM imidazole and 0.02% NP40 (wash buffer 1), and then with 20 ml buffer A supplemented with 25 mM imidazole (wash buffer 2). Proteins were eluted with buffer A supplemented with 100 mM imidazole (elution buffer). The purity of the proteins was checked on 12% SDS-PAGE gels that were stained with Coomassie blue. Purified proteins were stored at -80°C after making 50% in glycerol (w/w). The proteins concentrations were determined using the Bio-Rad Protein Dye Assay (Biorad, Munich, Germany).
(§2) We used a colorimetric assay based on Malachite green as previously described. We optimized the previously published conditions for the LieIF and eIF4AIMus ATPase assays to fit microtiter plates and the screening conditions by varying the quantities of proteins, ATP and magnesium acetate, and by testing different sources and concentrations of RNA. Each reaction was done in 50 μl. The final reaction buffers contained 50 mM potassium acetate, 20 mM MES, pH 6, either 5 mM or 1 mM magnesium acetate for LieIF or eIF4AIMus respectively, 2 mM dithiothreitol (DTT), 0.1 mg/ml bovine serum albumin (BSA) and 0.34 mg/ml whole yeast RNA (Type XI, Sigma). Reactions were incubated at 37°C for various times up to 45 min, and were stopped by adding 5 μl of 0.5 M ethylenediaminetetraacetic acid (EDTA) at pH 8. In experiments testing the compounds, samples dissolved in DMSO were added to the reaction in different concentrations. The final concentration of DMSO in the reaction was 10% (v/v). The reaction rates were determined by a linear regression fit of the initial, linear phase of the curves. Reaction rates were determined in three independent experiments for each compound concentration. Data were analyzed with Kaleidagraph (Synergy).
The Z’-factor is a statistical parameter used to measure the quality of a screening assay. For the biochemical screening, reactions were done with and without proteins as positive and negative controls, respectively. All assay conditions were identical to those described above. Positive controls were designed to replicate a positive hit in an inhibitor screen. Negative controls were designed as no enzymatic reactions. The phosphate released was measured after 45 min. Statistical analysis was performed using the equation: Z^′=1-3*(σ^++σ^-)/(μ^+-μ^-) (2) where μ^− and σ^− correspond to the mean absorbance and standard deviations respectively, for each reaction without enzyme (no activity), and μ^+ and σ^+ are the mean absorbance and standard deviations, respectively, for reaction wells in the presence of enzyme. The Z’-factor values above 0.5 were considered significant and corresponding plates were retained. […]

Series [3] is described as follows: MTT cytotoxicity assay on THP-1-derived macrophages. The conditions noted are these: human, THP-1-derived macrophages (PMA-differentiated). For orientation: Tetrazolium dyes change colour on reduction, which living cells bring about.
Procedure: The human myelomonocytic cell line, THP-1 was ordered from the American Type Culture Collection (ATCC, TIB-202). [86] Cells were maintained in RPMI 1640/Glutamax-I media (Gibco BRL, Germany) supplemented with 10% heat-inactivated fetal calf serum (Gibco, Germany) plus penicillin G (100 U/ml) and streptomycin (100 g/ml). THP-1 cells were differentiated to macrophages after their treatment with 20 ng/ml phorbol 12-myristate 7-acetate (PMA) (Sigma, St. Louis, MO, USA) for 48 h at 37°C, 5% CO2. [87] […] [87]
For the cytotoxicity assay, we used the THP-1-derived macrophages (50,000 cells/well) seeded in 96-well plates and treated with serial concentrations of compounds (final concentrations of 1.5-100 μM) for 24h. After that, an MTT assay was performed as previously described to determine cell viability. [88] Thus, 20 μl of MTT solution (5 mg/ml) were added to each well and incubated at 25°C for 4h. Then, 150 μl of DMSO were added to each well to dissolve the blue formazan and the optical density (OD) was measured at 560 nm with a microplate reader ([sequence], Labsystems).
The cell viability of THP-1-derived macrophages was expressed as the percentage of the viable cell number in treated cells relative to the THP-1-derived macrophages treated with 1% DMSO. The 50% cytotoxic concentrations (CC50) were calculated for all the tested compounds by interpolation. All experiments were repeated three times in triplicate for each compound concentration.
In series [4] the test system is L. infantum promastigotes. Nature of the series: MTT viability assay on promastigotes. It is filed as cell-based. The following applies: Leishmania infantum, stationary phase promastigotes, 24h exposure.
Procedure: The effect of the selected chemical compounds on the viability of L. infantum promastigotes was evaluated by a colorimetric MTT (3-(4,5-dimethylthiazol-2yl)-2,5-diphenyl tetrazolium bromide) assay that consisted in a reduction of tetrazolium salt to a soluble crystal (blue formazan) by the succinate dehydrogenase activity of mitochondria in living cells, which can be quantified by spectrophotometry as previously described. […] Briefly, 90 μl of promastigotes harvested from the stationary growth phase were added to a 96-well culture plate (5 × 10^5 cells/well) with 10 μl of various concentrations of the selected compounds (to obtain a final concentration of 1.5-100 μM) and incubated at 25°C for 24h. After incubation, 20 μl of MTT solution (5 mg/ml) were added to each well and incubated at 25°C for 4h. Then, 150 μl of DMSO was added to each well to dissolve the blue formazan and the optical density (OD) was measured at 560 nm with a microplate reader ([sequence], Labsystems). Mock treated-promastigotes in complete medium (with no drug, 1% DMSO) were used as positive control. Stock solutions of the compounds prepared for these experiments contained 100% DMSO. All subsequent dilutions were freshly made with RPMI 1640 (final concentration of 10% DMSO). Thus, all compounds, as well as the positive control, were tested at a final concentration of 1% DMSO per well.
The promastigotes viability was expressed as the percentage of the viable promastigotes in treated conditions relative to the 1% DMSO mock-treated promastigotes. The IC50 values were calculated for all the tested compounds by interpolation. […] All experiments were repeated three times in triplicate for each compound concentration. Absorbance measured was used to reflect promastigote or cell viability using the following formula: %cellviability=[(ODtest-ODblank)/(ODcontrol-ODblank)]*100 (4)
Series [5] has as its target T2, eIF4AIMus (Mus musculus, UniProt P60843).
T2 construct: His tag; made in house; host or cells: Escherichia coli Rosetta (Novagen)
Put plainly: Malachite green RNA-dependent ATPase assay of eIF4AIMus. In kind it is biochemical. The conditions noted are these: for effect on the ATPase activity of eIF4AIMus in screen: screened at 500 μM. As for the experimental part: as §1, §2
Biochemical screening experiments were performed in 96-well plates. Column 1 and 12 contained full signal controls (no inhibitor) and background controls (no enzyme): wells A1 to D1 and E12 to H12 corresponded to negative controls; E1 to H1 and A12 to D12 corresponded to positive controls. Compounds were added in columns 2 to 11, at a 500 μM final concentration. ATPase test reactions were done in three independent experiments. The phosphate released was measured after 45 min. Results were reported as weighted means. Z’-scores were calculated for each plate from the full signal and background controls. Plates with Z’-values below 0.5 were discarded. The inhibition of ATPase activity was calculated as follow: [85] Percentageofinhibition=(μ^+-OD630nmforcompoundX)/(μ^+-μ^-)*100 (3) Selected hits were further tested with kinetic assays. Results were reported as ATPase reaction velocities. […]

In series [6] the test system is L. infantum intramacrophage amastigotes. Put plainly: Macrophage infection assay, intramacrophage amastigotes. It is filed as cell-based, Leishmania infantum. The conditions noted are these: infected THP-1-derived macrophages, 24h exposure. As for the experimental part: [86] […] [87] […] [87]
After careful washing of PMA-treated THP-1 cells (50,000 cells/well) with warm serum-free RPMI-1640 (∼ 37°C) media, 50 μl of the diluted L. infantum promastigote culture were added at the optimized MOI (10:1). Control wells of THP-1 cells without the parasites, and THP-1 cells with the parasites, were set up in each 8-well Labtek slides. The slides were incubated at 37°C, 5% CO2 overnight. After incubation, infected wells were washed at least 3 times with serum-free RPMI-1640 media to ensure complete removal of non-engulfed promastigotes, and then they were incubated in presence of different concentrations of compounds for 24 h. Control groups were incubated in supplemented RPMI medium containing 1% DMSO. Cells were then fixed and stained with RAL 555 rapid stain kit (May-Grünwald Type) (Cell Path, Newtown, UK) following the manufacturer’s instructions. The number of infected cells per 100 macrophages and the total number of parasites per 100 cells observed were determined by light microscopy under immersion oil (1000X) by counting at least 100 cells per well. Three independent experiments were conducted for each compound concentration. These values allowed us to determine the mean values and standard deviations of the percentage of infected cells and the mean amastigote number per cell. To account for the overall parasite load, an Infection Index was calculated by multiplying these two values; then, to assess the infection inhibition by the compounds, the percentage of Inhibition Parasite Index (IPI) was determined as: IPI = 100 − ((Infection Index in treated cells/Infection Index in untreated cells) * 100).
The amastigote IC50 values were calculated for all tested compounds. Selectivity index was also determined for each compound as follows: SI = CC50/IC50. Data were analyzed with Kaleidagraph (Synergy). The statistical significance of differences was determined with the Student’s t-test (* p < 0.05; ** p < 0.01).

Setting [7] is: 1 μM protein, 1 mM ATP, saturating RNA, read-out: IC50 of eIF4AIMus ATPase activity.
The mark [8] stands for this setting: Leishmania infantum, Macrophage, 24 h.

T2 sequence (P60843 whole entry): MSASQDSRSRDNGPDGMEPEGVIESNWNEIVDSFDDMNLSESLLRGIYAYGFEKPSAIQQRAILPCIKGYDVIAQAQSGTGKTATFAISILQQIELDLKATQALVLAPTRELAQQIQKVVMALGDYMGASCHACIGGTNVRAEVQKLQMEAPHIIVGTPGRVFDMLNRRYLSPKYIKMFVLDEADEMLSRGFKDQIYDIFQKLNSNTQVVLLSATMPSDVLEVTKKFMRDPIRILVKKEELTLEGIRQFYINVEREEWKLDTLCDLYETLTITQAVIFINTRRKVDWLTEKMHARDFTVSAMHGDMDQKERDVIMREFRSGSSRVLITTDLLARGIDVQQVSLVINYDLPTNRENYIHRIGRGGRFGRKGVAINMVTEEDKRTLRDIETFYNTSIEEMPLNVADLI

7-α/β-aminocholesterol: in series [1], the “reduction of the number of intracellular L. donovani amastigotes” value was 59%.
By IC50 is commonly meant the midpoint of a concentration-inhibition curve. Usually inhibition stands for the change of the read-out against control, counted positive when it falls. By CC50 is commonly meant the concentration giving 50% cytotoxicity. Read a low CC50 as harm at low concentration. Consider `CC(C)CCCC(C)C1CCC2C3CC(N)C4CC(O)CCC4(C)C3CCC12C` (mixture of isomers) [Compound 208, 6-α/β-aminocholestanol], for which the IC50 came to 0.15 ± 0.015 mM in series [2], 4.1 ± 2.6 µM in series [4], 0.115 ± 0.025 mM in series [5] (setting [7]) and 1.4 ± 0.1 µM in series [6] (setting [8]). In addition, the inhibition at 500 µM in series [2] (500 μM compound, phosphate released after 45 min, 96-well screen, read-out: percentage of inhibition of LieIF ATPase activity) amounted to 90%. For the same compound, the midpoint of cytotoxicity in series [3], the CC50 at 24 h, lay at 43.4 ± 0.1 µM.
Regarding `CC(C)CCCC(C)C1CCC2C3CC(N)C4CC(O)CCC4(C)C3CCC12C` (stereo not drawn) [Compound 20, 6-α-aminocholestanol], the IC50 in series [2] was 0.16 ± 0.025 mM; in series [4] it was 3.6 ± 0.1 µM; in series [5] (setting [7]), 0.185 ± 0.025 mM; in series [6] (setting [8]), below 1 µM; in series [6] it was 0.9 µM. For the same compound, the “effect on the ATPase activity of LieIF in screen” value in series [2] is listed as “demonstrated inhibition”. It took 35.2 ± 1.3 µM to reach half-maximal cytotoxicity in series [3] (CC50 at 24 h). Also, the “effect on the ATPase activity of eIF4AIMus in screen” value in series [5] was “demonstrated inhibition”.
`CC(C)CCCC(C)C1CCC2C3CC(=O)C4CC(O)CCC4(C)C3CCC12C` (stereo not drawn) [Compound 48, 6-ketocholestanol]: the IC50 in series [2] was above 1 mM; in series [2] (read-out: IC50 of LieIF ATPase activity, 1 μM protein, value printed in mM in text), at most 1 mM; in series [4], 39.1 ± 0.8 µM; in series [5] it was above 1 mM; in series [5] (read-out: IC50 of eIF4AIMus ATPase activity, 1 μM protein, value printed in mM in text), at most 1 mM; in series [6] (setting [8]) it was 4.2 ± 0.1 µM. Besides, the “effect on the ATPase activity of LieIF in screen” value in series [2] is on record as “demonstrated inhibition”. In series [3], this compound came in with a CC50 at 24 h of 81.4 ± 2.4 µM. Further, the “effect on the ATPase activity of eIF4AIMus in screen” value in series [5] is “demonstrated inhibition”.
